In ChEMBL document CHEMBL2311342, “Inhibitors of the Yersinia protein tyrosine phosphatase through high throughput and virtual screening approaches” (Bioorg Med Chem Lett, 2013):

Experiment: Inhibition of Yersinia pestis YopH catalytic domain (residues 163-468) using pNPP substrate

**Q.** For `Cn1nc(-c2ccc(Cl)cc2)nc2c(=O)n(C)c(=O)nc1-2`, which IC50 is on record?
**A.** 1.28 µM

**Q.** For `Cc1c(N=c2c(=O)c3ccccc3c2=O)c(=O)n(-c2ccccc2)n1C`, which IC50 is on record?
**A.** 4.01 µM

**Q.** With `O=C(O)c1ccc(-c2nc(-c3ccc(-c4ccccc4)cc3)c(-c3ccc(-c4ccccc4)cc3)[nH]2)cc1` as the compound, how does the IC50 read?
**A.** 2.15 µM

**Q.** Which IC50 does the source give for `Cn1nc(-c2cccs2)nc2c(=O)n(C)c(=O)nc1-2` here?
**A.** 0.88 µM

**Q.** Which IC50 does the source give for `CN1C(=O)C(=Cc2cn(Cc3cnc(Cl)s3)c3ccccc23)C(=O)N(C)C1=O` here?
**A.** 4.61 µM

**Q.** Which IC50 does the source give for `O=C(O)c1cc(-c2ccc(/C=N/Nc3nc4nonc4nc3Nc3ccc(F)cc3)o2)ccc1O` here?
**A.** 0.38 µM

**Q.** With `O=C(COc1ccccc1)N1CCN(S(=O)(=O)c2ccccc2[N+](=O)[O-])CC1` as the compound, how does the IC50 read?
**A.** 0.98 µM

**Q.** With `O=C1Nc2ccc(Br)cc2/C1=C1/SC(=S)N(c2cccc(C(F)(F)F)c2)C1=O` as the compound, how does the IC50 read?
**A.** 1.22 µM

**Q.** With `CCCCN1C(=O)/C(=C2\SC(N3CCC(C(N)=O)CC3)=NC2=O)c2ccccc21` as the compound, how does the IC50 read?
**A.** 1.68 µM

**Q.** With `O=C1NC(=O)C(=Cc2ccc(OCc3ccc([N+](=O)[O-])cc3)c(Br)c2)C(=O)N1` as the compound, how does the IC50 read?
**A.** 1.89 µM

**Q.** For `O=C(O)c1ccc(N2C(=O)c3ccc(-c4nc5ccccc5c(=O)o4)cc3C2=O)cc1`, which IC50 is on record?
**A.** 1.92 µM

**Q.** For `Cc1c(/C(=N/OC(=O)c2ccc(F)cc2)C(F)(F)F)cc(-c2ccc(S(C)(=O)=O)cc2)n1-c1ccc(F)cc1`, which IC50 is on record?
**A.** 2.35 µM

**Q.** With `COc1cc(/C=C2/N=C(c3ccc(Cl)c(Cl)c3)OC2=O)cc(OC)c1OC` as the compound, how does the IC50 read?
**A.** 4.48 µM

**Q.** Which IC50 does the source give for `NC(=S)N1N=C(c2ccc([N+](=O)[O-])cc2)/C(=N\Nc2ccc(S(=O)(=O)O)cc2)C1=O` here?
**A.** 4.61 µM

**Q.** Which IC50 does the source give for `O=C1NC(=S)NC(=O)C1=Cc1ccc(N2CCc3ccccc3C2)c([N+](=O)[O-])c1` here?
**A.** 4.73 µM

**Q.** With `O=C1OC(c2ccc(Cl)cc2)=N/C1=C/Nc1ccc(O)c(C(=O)O)c1` as the compound, how does the IC50 read?
**A.** 8.1 µM

**Q.** For `CN1C(=O)C(=Cc2ccc(OCc3c(F)cccc3Cl)cc2)C(=O)N(C)C1=O`, which IC50 is on record?
**A.** 9.89 µM
